In patent publication US4678809A, “Injectable fomulations of disulfiram for the treatment of alcoholism” (priority 1985, dated 1987):
Entries after “also recorded” stand apart in the source; their conditions may differ. Like-named read-outs stand apart in the source and are kept apart here.

Tests used:
[1] = in vivo; cited from earlier work
alcoholic human subjects [2] = experiment: Clinical study: tolerability, injection site and systemic effects; assay type: in vivo; conditions: 250 mg every morning, two subjects
Protocol: (§1) Two alcoholic human subjects were studied: Subject No.1 and subject No. 2 a person.
(§2) Each subject discontinued oral disulfiram one week before commencing the study. On day zero, each fasted from the preceding midnight, then received a standard alcohol challenge (0.15 G/kg). After eating a meal, and confirming by breath testing (with an Alco-Sensor III) that the blood ethanol concentration had fallen to zero, subject No. 1 received a dose of 1 G disulfiram subcutaneously. The drug was administered in the upper outer quadrant of the right buttock with aseptic precautions using a 14 G needle, after preparing the skin with infiltration of local anesthetic. A control injection of sterile normal saline was administered to the left buttock. Subject No. 2 received 2 G disulfiram in a similar fashion.
(§3) A similar alcohol challenge was then repeated on days 7, 14, 21, and 28 after the injection. A physical examination was performed at each visit and the injection site examined.

[3] = Local and systemic toxicity after subcutaneous implantation in rats
From the text: Two groups of animals were studied: a test group receiving the subcutaneous C-14-disulfiram-PLGA implant, and a control group receiving subcutaneous uncompounded C-14-disulfiram. Each group comprised five Wistar CD-1 male rats weighing between 100-120 g. After anesthesia with Penthrane (Abbott Laboratories), a slit was cut in the skin of the interscapular region and a small subcutaneous pocket was dissected, large enough for the introduction of the 1/8 inch diameter rods. Each rat received 500 mg of the 20% composite rods (containing 100 mg C-14-disulfiram and 400 mg PLFA) and the wound was closed with clips. […] No attempt was made to preserve strict asepsis during these procedures.
All rats were individually housed in metabolic cages to facilitate the separate collection of urine and feces. Prior to implantation, their fecal and urine samples were collected to determine background counts. Subsequent samples of all excreted urine and feces were collected on days 1,2,7,9,11, 15,18,22,25,29,32,39,46,53,60,67,74,81 and 88 after implantation. Urine samples were assayed for C-14 labelled material in a Beckman LS-230 liquid scintillation counter, and the excretion was calculated as the mass of implanted disulfiram which contained an equivalent amount of radiolabel. Feces were combusted to 14-CO2 with a Harvey Biological oxidizer and absorbed in oxyfluor-CO2 (New England Nuclear) for counting. […]

[4] = Gamma irradiation: sterility and chemical stability; assay type: physicochemical; conditions: after gamma irradiation
From the text: In order to be suitable for injection, the formulations must be sterile. […] Gamma irradiation was therefore used as the best available technique.
A Best Industries Gammaradiator 100 Cs-137 irradiator was used. The disulfiram unit doses were placed in the 20×20 cm irradiation chamber, 30 cm from a 1800 curie Cesium-137 source emitting 660 KeV gamma rays. The exposure rate at the point of irradiation was 90 R/min. A filter was placed in the beam to ensure a uniform exposure at the floor of the irradiation chamber. A total exposure of 50,000 R was administered. Prior to injection, approximately 10 cc of sterile normal saline was drawn up into the syringe which was then shaken vigorously to suspend the DSF powder. The resultant slurry could then be readily injected through a wide bore (e.g. 14 gauge) needle.

alcoholic human subjects [5] = experiment: Clinical study: subjective and clinical response to alcohol challenge; assay type: in vivo
Protocol: as §1, §2, §3
Subjective responses--the subject was asked to state aloud the number in the following table which most closely accorded with the way he or she felt at the moment. This response was executed every five minutes, following the alcohol challenge, for a two hour period.

acetaldehyde in breath = experiment: Clinical study: peak acetaldehyde concentration in the breath after alcohol challenge; assay type: in vivo, human
Protocol: (§4) The method utilizes a Pyrex glass gas-collecting tube (internal volume approximately 300 cc) sealed at both ends with Teflon® taps. A side-port sealed with a Neoprene rubber septum permits sampling of the contents. The tube is first heated to approximately 70° C. to prevent any condensation from the breath. The subject then blows forcefully into the tube, and the Teflon taps are closed at the end of expiration while the tube is still in the subject's mouth. The tube is then taken to the laboratory, where, after reheating to 70° C., a 2.0 ml sample of the breath is aspirated through the Neoprene septum with a heated syringe and immediately injected into a Gas Chromatograph, for assay of ethanol and acetaldehyde by a standard flame-ionization detection technique. (The method has been described by Phillips et al. in Alcoholism: Clinical & Experimental Research 1984; 8:293-296.)
(§5) Each subject discontinued oral disulfiram one week before commencing the study. On day zero, each fasted from the preceding midnight, then received a standard alcohol challenge (0.15 G/kg). After eating a meal, and confirming by breath testing (with an Alco-Sensor III) that the blood ethanol concentration had fallen to zero, subject No. 1 received a dose of 1 G disulfiram subcutaneously. […]

[6] = cited from earlier work
alcoholic humans = conditions: cited from earlier work
ethanol in breath = experiment: Clinical study: peak ethanol concentration in the breath after alcohol challenge; assay type: in vivo, human; conditions: compared to peak prior to treatment
Protocol: as §4, §5

aldehyde dehydrogenase = conditions: thiol groups, cited from earlier work
[7] = tested on: dopamine beta hydroxylase; conditions: cited from earlier work
[8] = pre-treatment with DSF, Lundwall et al.

For `S=C=S` [carbon disulfide], the excretion of metabolites [1] is given as “a volatile compound excreted in the breath”.

For `CCN(CC)C(=S)SSC(=S)N(CC)CC` [disulfiram], the “adverse effects of oral disulfiram before the study” value (alcoholic human subjects [2]) is listed as “no adverse effects”, the “local or systemic toxicity” value [3] is listed as “No evidence of local or systemic toxicity was observed” and the excretion of metabolites [1] is listed as “the breakdown products are promptly excreted”. The “metabolism in the blood and liver” value [1] was “very rapidly metabolized in the blood and liver”, the “chemical stability of irradiated samples” value [4] was “did not demonstrate any reduction in the concentration of disulfiram” and the “onset of diaphoresis after ethanol challenge, Subject No. 1” value (alcoholic human subjects [5]; 1 G disulfiram, day 7) was 20 min. For the same compound, the “diaphoresis, Subject No. 1” value (alcoholic human subjects [5]; 1 G disulfiram, day 7, duration of the diaphoretic period) was 10 min, the “subjective effects following ethanol challenges, Subject No. 1” value (alcoholic human subjects [5]; 1 G disulfiram, entire four weeks) was “no adverse subjective effects” and the “subjective discomfort following ethanol challenge, Subject No. 2” value (alcoholic human subjects [5]; 2 G disulfiram, day 7) was “dizziness, facial flushing, blurred vision and headache, and their conjunctivae were observed to be injected”. For the same compound, the “subjective discomfort score, Subject No. 2, at 20 minutes” value (alcoholic human subjects [5]; 2 G disulfiram, day 7, 20 minutes, scale 1 Very well to 5 Terrible, 3 = A little unwell) was 3, the “subjective discomfort score, Subject No. 2, at 40 minutes” value (alcoholic human subjects [5]; 2 G disulfiram, day 7, 40 minutes, scale 1 Very well to 5 Terrible, 3 = A little unwell) was 3 and the “effects following ethanol challenge, Subject No. 2, day 28” value (alcoholic human subjects [5]; 2 G disulfiram, day 28) was “no unpleasant symptoms”. The “positive results of alcohol challenges (symptoms)” value (alcoholic human subjects [5]; after DSF injection, human subjects) was “elevated skin temperatures, dizziness, facial flushing, headache, and blurring of vision”, the “peak acetaldehyde concentration in breath, Subject No. 1” value (acetaldehyde in breath; 1 G, compared to peak prior to treatment) was “elevated peak in Subject No. 1 on day 7” and the “acetaldehyde following consumption of alcohol” value (acetaldehyde in breath; FIG. 3, after injection of DSF) was “elevated levels of acetaldehyde”. For the same compound, the “solubility of DSF in water” value [6] was 0.02 G/100 ml, the “solubility in water (in words)” value ([6]; listed as DSF) was “poorly soluble in water; also recorded: near insolubility in water” and the “end of typical response after consuming alcohol” value (alcoholic humans; [8]) was at most 30 min. For the same compound, the “onset of typical response after consuming alcohol” value (alcoholic humans; [8]) was “five to ten”, the “Disulfiram-Ethanol Reaction symptoms” value (alcoholic humans; pretreatment with DSF, then ethyl alcohol, listed as DSF) was “nausea, palpitations, flushing, hyperventilation and hypotension” and the “peak ethanol concentration in breath, Subject No. 1” value (ethanol in breath; 1 G) was “elevated peak in subject No. 1, on days 7 and 14”. For the same compound, the “peak ethanol concentration in breath, Subject No. 2” value (ethanol in breath; 2 G) was “only a mild elevation in subject No. 2 on day 7”, the “inactivation of aldehyde dehydrogenase” value (aldehyde dehydrogenase) was “inactivating aldehyde dehydrogenase” and the “inactivation of aldehyde dehydrogenase” value (aldehyde dehydrogenase; listed as DSF) was “inactivates aldehyde dehydrogenase by irreversible disulfide interchange reactions with thiol groups”. The “inhibition of dopamine beta hydroxylase” value [7] was “inhibits dopamine beta hydroxylase”.
